Measurements as given in PubChem BioAssay AID1963962 (Molecular Pharmacology Branch, DTP, NCI, 2024).

System: 967376-340-R-J2-PDC multicell spheroid viability
Assay: Anticancer human tumor 967376-340-R-J2-PDC patient-derived colon adenocarcinoma cell line growth inhibition [PI3K]
Conditions: for IC50: curve of first compound; for viability, T/C: stronger effect = lower value
In short: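 Multi-cell spheroids combine tumor cells with HUVEC and human MSCs, treated with targeted agents alone or with inavolisib, alpelisib, duvelisib or copanlisib. Concentrations fall in half-log steps from at or near clinical Cmax, or from 10 microM where Cmax is unknown; viability read-out.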

[1] = second compound 0.0316 µM, first compound 0.000316 µM
[2] = second compound 0.0316 µM, first compound 0.001 µM
[3] = second compound 0.0316 µM, first compound 0.00316 µM
[4] = second compound 0.0316 µM, first compound 0.01 µM
[5] = second compound 0.0316 µM, first compound 0.0316 µM
[6] = second compound 0.0316 µM, first compound 0.1 µM
[7] = second compound 0.1 µM, first compound 0.000316 µM
[8] = second compound 0.1 µM, first compound 0.001 µM
[9] = second compound 0.1 µM, first compound 0.00316 µM
[10] = second compound 0.1 µM, first compound 0.01 µM
[11] = second compound 0.1 µM, first compound 0.0316 µM
[12] = second compound 0.1 µM, first compound 0.1 µM
[13] = second compound 0.316 µM, first compound 0.000316 µM
[14] = second compound 0.316 µM, first compound 0.001 µM
[15] = second compound 0.316 µM, first compound 0.00316 µM
[16] = second compound 0.316 µM, first compound 0.01 µM
[17] = second compound 0.316 µM, first compound 0.0316 µM
[18] = second compound 0.316 µM, first compound 0.1 µM
[19] = second compound 1 µM, first compound 0.000316 µM
[20] = second compound 1 µM, first compound 0.001 µM
[21] = second compound 1 µM, first compound 0.00316 µM
[22] = second compound 1 µM, first compound 0.01 µM
[23] = second compound 1 µM, first compound 0.0316 µM
[24] = second compound 1 µM, first compound 0.1 µM
[25] = second compound 3.16 µM, first compound 0.000316 µM
[26] = second compound 3.16 µM, first compound 0.001 µM
[27] = second compound 3.16 µM, first compound 0.00316 µM
[28] = second compound 3.16 µM, first compound 0.01 µM
[29] = second compound 3.16 µM, first compound 0.0316 µM
[30] = second compound 3.16 µM, first compound 0.1 µM
[31] = second compound 10 µM, first compound 0.000316 µM
[32] = second compound 10 µM, first compound 0.001 µM
[33] = second compound 10 µM, first compound 0.00316 µM
[34] = second compound 10 µM, first compound 0.01 µM
[35] = second compound 10 µM, first compound 0.0316 µM
[36] = second compound 10 µM, first compound 0.1 µM
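Further: spheroids exposed to agents for 7 days before read-out.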
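Wherever viability, T/C is given: luminescence used as surrogate of cell viability.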

CC(=O)c1c(C)c2cnc(Nc3ccc(N4CCNCC4)cn3)nc2n(C2CCCC2)c1=O + CC(Nc1ncnc2nc[nH]c12)c1cc2cccc(Cl)c2c(=O)n1-c1ccccc1
IC50 (second compound 0.0316 µM): > 100 nM
IC50 (second compound 0.1 µM): > 100 nM
IC50 (second compound 0.316 µM): > 100 nM
IC50 (second compound 1 µM): > 100 nM
IC50 (second compound 3.16 µM): > 100 nM
IC50 (second compound 10 µM): > 100 nM
viability, T/C [1]: 81.1%
viability, T/C [2]: 101%
viability, T/C [3]: 92.2%
viability, T/C [4]: 92.7%
viability, T/C [5]: 79.9%
viability, T/C [6]: 82.6%
viability, T/C [7]: 114%
viability, T/C [8]: 89.4%
viability, T/C [9]: 101%
viability, T/C [10]: 89.4%
viability, T/C [11]: 84.4%
viability, T/C [12]: 83.8%
viability, T/C [13]: 101%
viability, T/C [14]: 96%
viability, T/C [15]: 113%
viability, T/C [16]: 97%
viability, T/C [17]: 79.3%
viability, T/C [18]: 78.6%
viability, T/C [19]: 90%
viability, T/C [20]: 103%
viability, T/C [21]: 91%
viability, T/C [22]: 80.3%
viability, T/C [23]: 98.6%
viability, T/C [24]: 88.2%
viability, T/C [25]: 89.6%
viability, T/C [26]: 109%
viability, T/C [27]: 95.1%
viability, T/C [28]: 90.3%
viability, T/C [29]: 84.1%
viability, T/C [30]: 63.9%
viability, T/C [31]: 83.5%
viability, T/C [32]: 89.5%
viability, T/C [33]: 81.3%
viability, T/C [34]: 88%
viability, T/C [35]: 87.5%
viability, T/C [36]: 86.9%

CC(C)n1nc(-c2ccc3oc(N)nc3c2)c2c(N)ncnc21 + CC(Nc1ncnc2nc[nH]c12)c1cc2cccc(Cl)c2c(=O)n1-c1ccccc1
IC50 (second compound 0.0316 µM): > 100 nM
IC50 (second compound 0.1 µM): > 100 nM
IC50 (second compound 0.316 µM): > 100 nM
IC50 (second compound 1 µM): > 100 nM
IC50 (second compound 3.16 µM): > 100 nM
IC50 (second compound 10 µM): > 100 nM
viability, T/C [1]: 109%
viability, T/C [2]: 92.2%
viability, T/C [3]: 96.6%
viability, T/C [4]: 98.6%
viability, T/C [5]: 97.5%
viability, T/C [6]: 59.1%
viability, T/C [7]: 90.1%
viability, T/C [8]: 94.5%
viability, T/C [9]: 90.6%
viability, T/C [10]: 103%
viability, T/C [11]: 80.8%
viability, T/C [12]: 69.9%
viability, T/C [13]: 113%
viability, T/C [14]: 104%
viability, T/C [15]: 99.9%
viability, T/C [16]: 98.5%
viability, T/C [17]: 77%
viability, T/C [18]: 54.7%
viability, T/C [19]: 124%
viability, T/C [20]: 97%
viability, T/C [21]: 89.9%
viability, T/C [22]: 90.1%
viability, T/C [23]: 71%
viability, T/C [24]: 53%
viability, T/C [25]: 101%
viability, T/C [26]: 94.3%
viability, T/C [27]: 93.9%
viability, T/C [28]: 80.4%
viability, T/C [29]: 81.3%
viability, T/C [30]: 62.2%
viability, T/C [31]: 93%
viability, T/C [32]: 81.4%
viability, T/C [33]: 76.7%
viability, T/C [34]: 88%
viability, T/C [35]: 73.3%
viability, T/C [36]: 61.3%

CCCS(=O)(=O)Nc1ccc(F)c(C(=O)c2c[nH]c3ncc(-c4ccc(Cl)cc4)cc23)c1F + CC(Nc1ncnc2nc[nH]c12)c1cc2cccc(Cl)c2c(=O)n1-c1ccccc1
IC50 (second compound 0.0316 µM): > 10000 nM
IC50 (second compound 0.1 µM): > 10000 nM
IC50 (second compound 0.316 µM): > 10000 nM
IC50 (second compound 1 µM): > 10000 nM
IC50 (second compound 3.16 µM): > 10000 nM
IC50 (second compound 10 µM): > 10000 nM
viability, T/C [5]: 122%
viability, T/C [6]: 125%
viability, T/C (second compound 0.0316 µM, first compound 0.316 µM): 109%
viability, T/C (second compound 0.0316 µM, first compound 1 µM): 113%
viability, T/C (second compound 0.0316 µM, first compound 3.16 µM): 103%
viability, T/C (second compound 0.0316 µM, first compound 10 µM): 58.9%
viability, T/C [11]: 97.2%
viability, T/C [12]: 106%
viability, T/C (second compound 0.1 µM, first compound 0.316 µM): 99.1%
viability, T/C (second compound 0.1 µM, first compound 1 µM): 90.5%
viability, T/C (second compound 0.1 µM, first compound 3.16 µM): 92%
viability, T/C (second compound 0.1 µM, first compound 10 µM): 52.7%
viability, T/C [17]: 103%
viability, T/C [18]: 89.1%
viability, T/C (second compound 0.316 µM, first compound 0.316 µM): 96.6%
viability, T/C (second compound 0.316 µM, first compound 1 µM): 96.3%
viability, T/C (second compound 0.316 µM, first compound 3.16 µM): 109%
viability, T/C (second compound 0.316 µM, first compound 10 µM): 60.4%
viability, T/C [23]: 98.2%
viability, T/C [24]: 95.4%
viability, T/C (second compound 1 µM, first compound 0.316 µM): 105%
viability, T/C (second compound 1 µM, first compound 1 µM): 92.7%
viability, T/C (second compound 1 µM, first compound 3.16 µM): 110%
viability, T/C (second compound 1 µM, first compound 10 µM): 58.4%
viability, T/C [29]: 119%
viability, T/C [30]: 79.9%
viability, T/C (second compound 3.16 µM, first compound 0.316 µM): 92.2%
viability, T/C (second compound 3.16 µM, first compound 1 µM): 111%
viability, T/C (second compound 3.16 µM, first compound 3.16 µM): 100%
viability, T/C (second compound 3.16 µM, first compound 10 µM): 74.9%
viability, T/C [35]: 84.2%
viability, T/C [36]: 87.1%
viability, T/C (second compound 10 µM, first compound 0.316 µM): 80%
viability, T/C (second compound 10 µM, first compound 1 µM): 88.7%
viability, T/C (second compound 10 µM, first compound 3.16 µM): 98.7%
viability, T/C (second compound 10 µM, first compound 10 µM): 61.1%
